Measured values: patent US20230398130A1, “METHODS AND COMPOSITIONS FOR DIFFERENTIATING STEM CELLS” (Massachusetts Institute of Technology, priority 2020, published 2023)

Tests used:
[1] = tested on: ISC-enriched organoids; assay: Primary screen, 384-well 2.5-D organoid differentiation (ENR+CD, 6 days): carbachol-induced lysozyme secretion (LYZ.S); format: cell-based, murine; conditions: for Dose.FC.LYZ.S / Z.LYZ.S / SSMD.LYZ.S: primary screen; for Dose.FC.LYZ.S: FC vs plate median; for Z.LYZ.S: standard z score; for SSMD.LYZ.S: strictly standardized mean difference; for Dose.FC.LYZ.S (log 2 fold change, carbachol-induced lysozyme secretion): vs plate median
Description: (§1) High-throughput screening.

[2] = tested on: ISC-enriched organoids; assay: Primary screen, 384-well 2.5-D organoid differentiation (ENR+CD, 6 days, Target Selective Inhibitor Library, vs whole-plate median): ATP (CellTiter-Glo 3D, CTG); conditions: for Dose.FC.CTG: FC vs plate median; for SSMD.CTG: strictly standardized mean difference; for Dose.FC.CTG (log 2 fold change, ATP): vs plate median
[3] = tested on: ISC-enriched organoids; assay: Primary screen, 384-well 2.5-D organoid differentiation (ENR+CD, 6 days): basal lysozyme secretion (LYZ.NS); format: cell-based, murine; conditions: for Dose.FC.LYZ.NS / SSMD.LYZ.NS: primary screen; for Dose.FC.LYZ.NS: FC vs plate median; for Z.LYZ.NS: standard z score of FC; for SSMD.LYZ.NS: strictly standardized mean difference; for Dose.FC.LYZ.NS (log 2 fold change, basal lysozyme secretion): vs plate median
Description: as §1

[4] = 1st of the 4 dose lines of the treatment (dose not given)
[5] = 2nd of the 4 dose lines of the treatment (dose not given)
[6] = 3rd of the 4 dose lines of the treatment (dose not given)
[7] = 4th of the 4 dose lines of the treatment (dose not given)
[8] = Dose 0.08 uM, standard z score of FC
[9] = Dose 0.40 uM, standard z score of FC
[10] = Dose 2.00 uM, standard z score of FC
[11] = Dose 10.00 uM, standard z score of FC
[12] = primary screen, 1st of the 4 dose lines of the treatment (dose not given)
[13] = primary screen, 2nd of the 4 dose lines of the treatment (dose not given)
[14] = primary screen, 3rd of the 4 dose lines of the treatment (dose not given)
[15] = primary screen, 4th of the 4 dose lines of the treatment (dose not given)

## O=C(NCCN1CCOCC1)c1ccc(Cl)cc1 [Moclobemide (Ro 111163)]
[1]; Dose 0.08 uM
  Dose.FC.LYZ.S: 0.147 log 2 fold change
[1]; Dose 0.40 uM
  Dose.FC.LYZ.S: 0.094 log 2 fold change
[1]; Dose 2.00 uM
  Dose.FC.LYZ.S: 0.012 log 2 fold change
[1]; Dose 10.00 uM
  Dose.FC.LYZ.S: 0.019 log 2 fold change
[1]; [4]
  Z.LYZ.S: 0.953
  SSMD.LYZ.S: 0.495
[1]; [5]
  Z.LYZ.S: 0.607
  SSMD.LYZ.S: 0.348
[1]; [6]
  Z.LYZ.S: 0.078
  SSMD.LYZ.S: 0.056
[1]; [7]
  Z.LYZ.S: 0.123
  SSMD.LYZ.S: 0.135
[2]; Dose 0.08 uM, primary screen
  Dose.FC.CTG: 0.146 log 2 fold change
[2]; [8]
  Z.CTG: 0.348
[2]; Dose 0.40 uM, primary screen
  Dose.FC.CTG: 0.106 log 2 fold change
[2]; [9]
  Z.CTG: 0.252
[2]; Dose 2.00 uM, primary screen
  Dose.FC.CTG: 0.116 log 2 fold change
[2]; [10]
  Z.CTG: 0.276
[2]; Dose 10.00 uM, primary screen
  Dose.FC.CTG: 0.042 log 2 fold change
[2]; [11]
  Z.CTG: 0.100
[2]; [12]
  SSMD.CTG: 0.257
[2]; [13]
  SSMD.CTG: 0.148
[2]; [14]
  SSMD.CTG: 0.227
[2]; [15]
  SSMD.CTG: 0.115
[3]; Dose 0.08 uM
  Dose.FC.LYZ.NS: 0.075 log 2 fold change
  Z.LYZ.NS: 0.654
[3]; Dose 0.40 uM
  Dose.FC.LYZ.NS: 0.121 log 2 fold change
  Z.LYZ.NS: 1.055
[3]; Dose 2.00 uM
  Dose.FC.LYZ.NS: 0.001 log 2 fold change
  Z.LYZ.NS: 0.011
[3]; Dose 10.00 uM
  Dose.FC.LYZ.NS: −0.028 log 2 fold change
  Z.LYZ.NS: −0.243
[3]; [4]
  SSMD.LYZ.NS: 0.302
[3]; [5]
  SSMD.LYZ.NS: 0.415
[3]; [6]
  SSMD.LYZ.NS: 0.007
[3]; [7]
  SSMD.LYZ.NS: −0.219

## CN(Cc1cnc2nc(N)nc(N)c2n1)c1ccc(C(=O)N[C@@H](CCC(=O)O)C(=O)O)cc1 [Methotrexate]
[1]; [4]
  Z.LYZ.S: −1.029
  SSMD.LYZ.S: −0.943
[1]; [5]
  Z.LYZ.S: −0.831
  SSMD.LYZ.S: −0.627
[1]; [6]
  Z.LYZ.S: −1.143
  SSMD.LYZ.S: −0.866
[1]; [7]
  Z.LYZ.S: −1.007
  SSMD.LYZ.S: −0.718
[2]; Dose 0.08 uM, primary screen, standard z score
  Z.CTG: −1.469
[2]; Dose 0.40 uM, primary screen, standard z score
  Z.CTG: −1.724
[2]; Dose 2.00 uM, primary screen, standard z score
  Z.CTG: −1.674
[2]; [11]
  Z.CTG: −1.534
[2]; [12]
  SSMD.CTG: −1.489
[2]; [13]
  SSMD.CTG: −1.028
[2]; [14]
  SSMD.CTG: −1.982
[2]; [15]
  SSMD.CTG: −1.176
[3]; [4]
  SSMD.LYZ.NS: −0.745
[3]; [5]
  SSMD.LYZ.NS: −0.349
[3]; [6]
  SSMD.LYZ.NS: −1.130
[3]; [7]
  SSMD.LYZ.NS: −0.527

## Cc1[nH]c2ccccc2c1CCNCc1ccc(/C=C/C(=O)NO)cc1 [Panobinostat (LBH589)]
[1]; Dose 0.08 uM
  Dose.FC.LYZ.S: −0.034 log 2 fold change
[1]; Dose 0.40 uM
  Dose.FC.LYZ.S: −0.042 log 2 fold change
[1]; Dose 2.00 uM
  Dose.FC.LYZ.S: −0.285 log 2 fold change
[1]; Dose 10.00 uM
  Dose.FC.LYZ.S: −0.320 log 2 fold change
[2]; Dose 0.08 uM, primary screen
  Dose.FC.CTG: 0.295 log 2 fold change
[2]; [8]
  Z.CTG: 0.706
[2]; Dose 0.40 uM, primary screen
  Dose.FC.CTG: 0.212 log 2 fold change
[2]; [9]
  Z.CTG: 0.506
[2]; Dose 2.00 uM, primary screen
  Dose.FC.CTG: −0.537 log 2 fold change
[2]; [10]
  Z.CTG: −1.283
[2]; Dose 10.00 uM, primary screen
  Dose.FC.CTG: −1.003 log 2 fold change
[2]; [11]
  Z.CTG: −2.395
[3]; Dose 0.08 uM
  Dose.FC.LYZ.NS: 0.002 log 2 fold change
  Z.LYZ.NS: 0.014
[3]; Dose 0.40 uM
  Dose.FC.LYZ.NS: −0.027 log 2 fold change
  Z.LYZ.NS: −0.232
[3]; Dose 2.00 uM
  Dose.FC.LYZ.NS: −0.153 log 2 fold change
  Z.LYZ.NS: −1.329
[3]; Dose 10.00 uM
  Dose.FC.LYZ.NS: −0.217 log 2 fold change
  Z.LYZ.NS: −1.891

## Cl.Cl.Cl.O[C@@H](COc1cccc2ncccc12)CN1CCN([C@@H]2c3ccccc3[C@@H]3[C@H](c4ccccc42)C3(F)F)CC1 [Zosuquidar (LY335979) 3HCl]
[1]; dose 0.08 uM
  Dose.FC.LYZ.S (log 2 fold change, carbachol-induced lysozyme secretion): 0.124
[1]; dose 0.40 uM
  Dose.FC.LYZ.S (log 2 fold change, carbachol-induced lysozyme secretion): 0.127
[1]; dose 2.00 uM
  Dose.FC.LYZ.S (log 2 fold change, carbachol-induced lysozyme secretion): 0.129
[1]; dose 10.00 uM
  Dose.FC.LYZ.S (log 2 fold change, carbachol-induced lysozyme secretion): −0.200
[2]; dose 0.08 uM
  Z.CTG (standard z score): 0.041
  Dose.FC.CTG (log 2 fold change, ATP): 0.017
[2]; dose 0.40 uM
  Z.CTG (standard z score): 0.470
  Dose.FC.CTG (log 2 fold change, ATP): 0.197
[2]; dose 2.00 uM
  Z.CTG (standard z score): 0.659
  Dose.FC.CTG (log 2 fold change, ATP): 0.276
[2]; dose 10.00 uM
  Z.CTG (standard z score): −0.461
  Dose.FC.CTG (log 2 fold change, ATP): −0.193
[3]; dose 0.08 uM
  Z.LYZ.NS (standard z score): 0.839
  Dose.FC.LYZ.NS (log 2 fold change, basal lysozyme secretion): 0.096
[3]; dose 0.40 uM
  Z.LYZ.NS (standard z score): 0.696
  Dose.FC.LYZ.NS (log 2 fold change, basal lysozyme secretion): 0.080
[3]; dose 2.00 uM
  Z.LYZ.NS (standard z score): 1.802
  Dose.FC.LYZ.NS (log 2 fold change, basal lysozyme secretion): 0.207
[3]; dose 10.00 uM
  Z.LYZ.NS (standard z score): −1.821
  Dose.FC.LYZ.NS (log 2 fold change, basal lysozyme secretion): −0.209
